Assay [1] concerns E. cloacae expressing the Class C P99+. Description: In vitro antibacterial assay of β-lactamase inhibition (broth microdilution MIC), E. cloacae P99+. The assay is classed as cell-based. Conditions: for MIC: Enterobacter cloacae, read-out: MIC alone, E. cloacae P99+ AmpC. The source says: (§1) To determine the ability of test compounds to potentiate the inhibition of the growth of bacterial strains producing beta-lactamase enzymes, classic cell based screening assays were employed. Five bacteria strains producing beta-lactamase enzymes were used: K. pneumoniae expressing the Class A Extended Spectrum Beta-Lactamase (ESBL) CTX-M-15, E. coli expressing the Class A ESBL SHV-5, E. cloacae expressing the Class C P99+, K. pneumoniae expressing the Class A carbapenemase KPC-2, and P. aeruginosa expressing the Class B metallo β-lactamase VIM-2. In order to evaluate the ability of test compounds to inhibit beta-lactamase activity, Applicants used a modification of the broth microdilution assay. The assay was conducted in Cation Adjusted Mueller Hinton Broth (CAMHB, BD # 212322, BD Diagnostic Systems, Sparks, Md.). Bacteria strains were grown for 3-5 hours in CAMBH broth. All five strains were grown in presence of 50 μg/mL ampicillin to ensure resistance is maintained. In the meantime, test compounds were diluted in DMSO to a 0.1 mg/mL stock. The compounds were added to a microtiter plate and were diluted in 2-fold serial dilutions in CAMHB in a final concentration range of 8 μg/mL to 0.015 μg/ml. […] Each of these compound plates are made in quadruplicate, one for each bacteria strain. In addition to the titration of test compounds the MICs of a panel of cephalosporins is also tested to ensure the strains are behaving consistently from test to test. Once the test compound and cephalosporin are added the plates can be inoculated. Inocula are conducted according to CLSI broth microdilution method. After inoculation the plates are incubated for 16-20 hours at 37° C. then the Minimal Inhibitory Concentration (MIC) of the test compound is determined visually.
(§2) Using the methodology described above, examples of the current invention were evaluated for their ability to inhibit the growth of β-lactamase producing bacteria in the presence of a β-lactam antibiotic.
A general note: Dilution methods test growth across graded concentrations, often in twofold steps.

In assay [2] the test system is E. coli expressing the Class A ESBL SHV-5. Put plainly: In vitro antibacterial assay of β-lactamase inhibition (broth microdilution MIC), E. coli SHV-5. Conditions: for MIC: Escherichia coli, read-out: MIC alone, E. coli SHV-5. The assay is classed as cell-based.
Text: as §1, §2

In assay [3] the test system is P. aeruginosa expressing the Class B metallo β-lactamase VIM-2. Put plainly: In vitro antibacterial assay of β-lactamase inhibition (broth microdilution MIC), P. aeruginosa VIM-2. Conditions: for MIC: Pseudomonas aeruginosa, read-out: MIC alone, P. aeruginosa VIM-2. Format: cell-based.
Text: as §1, §2

Assay [4] concerns K. pneumoniae expressing the Class A carbapenemase KPC-2. Description: microbe, parasite or virus in culture. The assay is classed as cell-based. Conditions: for MIC: Klebsiella pneumoniae, read-out: MIC alone, K. pneumoniae KPC-2.
Text: as §1, §2

For assay [5], the system named is K. pneumoniae expressing the Class A Extended Spectrum Beta-Lactamase (ESBL) CTX-M-15. Description: In vitro antibacterial assay of β-lactamase inhibition (broth microdilution MIC), K. pneumoniae CTX-M-15. Format: cell-based. Conditions: for MIC: Klebsiella pneumoniae, read-out: MIC alone, K. pneumoniae CTX-M-15.
Text: as §1, §2

A further assay concerns the target T1, SHV-5 β-lactamase (Klebsiella pneumoniae, UniProt P0A3M1).
T1 construct: expressed as native untagged proteins; made in house; host or cells: E. coli BL21(DE3)
Put plainly: β-lactamase enzyme inhibition assay (nitrocefin substrate), SHV-5. The assay is classed as biochemical. On the procedure: (§3) Isolation of β-lactamases. For SHV-5, p99 AmpC, KPC-2 and CTX-M15 β-lactamases, E. coli BL21(DE3) bacterial cells carrying expression plasmids (expressed as native untagged proteins) for the individual β-lactamases were grown in 1 L of Superbroth (Teknova Inc. Hollister, Calif.) supplemented with 100 μg/ml kanamycin and 1×5052 (0.5% glycerol, 0.05% glucose and 0.2% α-lactose) at 35° C. for 18-20 hours. Cells were harvested by centrifugation (4,000×g, 4° C., 20 min), and resuspended in 50 ml of 10 mM HEPES pH 7.5 (1/20 of the initial volume). The cells were lysed by sonication (5 pulses of 45 seconds) at 45 W on ice. The lysates were clarified by centrifugation at 10,000×g for 40 minutes at 4° C. Samples were diluted 5-fold in 50 mM sodium acetate pH 5.0, stored overnight at 4° C., after which they were centrifuged at 10,000×g for 30 minutes to clarify, and filtered through 0.45 μm filters. The samples were loaded onto a 5 ml Capto S sepharose cation exchange column (GE Healthcare) pre-equilibrated with 50 mM sodium acetate pH 5.0. The column was washed with 5 column volumes of 50 mM sodium acetate pH 5.0 to wash out unbound protein and a linear gradient of NaCl (0 to 500 mM) was used to elute the protein (over 16 CV) from the column. Fractions were assayed for β-lactamase activity using Centa (Calbiochem, Gibbstown, N.J.) as a reporter β-lactamase substrate for activity in the isolated fractions. Active fractions were pooled, concentrated and further purified by gel filtration chromatography on a Superdex 75 prep grade gel filtration column (GE Healthcare, Piscataway, N.J.) pre-equilibrated in 50 mM Hepes pH 7.5, 150 mM NaCl. Active fractions were pooled concentrated, quantitated by BCA protein determination (Thermo Scientific, Rockford, Ill.), and frozen at −80° C. in 20% glycerol until use.
(§4) β-lactamase Inhibition. To determine the level of inhibition of β-lactamase enzymes, compounds were diluted in PBS at pH 7.0 to yield concentrations between 100 and 0.005 μM in microtiter plates. An equal volume of diluted enzyme stock was added, and the plates were incubated at 37° C. for 10 min. Nitrocefin solution was then dispensed as substrate into each well at a final concentration of 100 μM, and the plates were immediately read with the kinetic program at 486 nm for 10 min on the SPECTRAMAX® Plus^384 (high-throughput microplate spectrophotometer; Molecular Devices Corp., Sunnyvale, Calif.). Maximum rates of metabolism were then compared to those in control wells (without inhibitors), and percentages of enzyme inhibition were calculated for each concentration of inhibitor. The concentration of inhibitor needed to reduce the initial rate of hydrolysis of substrate by 50% (IC50) was calculated as the residual activity of β-lactamase at 486 nm using the SoftMax Pro 5.0 software (Molecular Devices Corp.).
(§5) Using the methodology described above, examples of the current invention were evaluated for their ability to inhibit β-lactamase enzymes. The results of these assays are summarized in Table 2 for representative enzymes across different subtypes (note SHV-5 and CTXM-15 exemplify different subclasses of Ambler Class A Extended Spectrum Beta Lactamases, KPC-2 exemplifies Class A carbapenemases, P99 represents chromosomal Class C AmpC, VIM-2 exemplifies subclass B1 of metallo-β-lactamases, and OXA-23 represents chromosome-encoded Class D oxacillin-hydrolyzing β-lactamases), NT=not tested.

The target in the next assay is T2, CTX-M15 β-lactamase (Escherichia coli, UniProt Q9EXV5).
T2 construct: expressed as native untagged proteins; made in house; host or cells: E. coli BL21(DE3)
T2 sequence (Q9EXV5 entry or part of it): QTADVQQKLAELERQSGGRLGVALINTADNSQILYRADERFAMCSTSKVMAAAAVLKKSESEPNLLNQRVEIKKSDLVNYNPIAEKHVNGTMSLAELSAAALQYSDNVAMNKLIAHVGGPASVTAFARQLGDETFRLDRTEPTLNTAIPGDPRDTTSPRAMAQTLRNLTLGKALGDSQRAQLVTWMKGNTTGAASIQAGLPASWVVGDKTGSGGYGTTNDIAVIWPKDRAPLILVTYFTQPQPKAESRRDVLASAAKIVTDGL
Description: β-lactamase enzyme inhibition assay (nitrocefin substrate), CTXM-15. The assay is classed as biochemical. The protocol:
as §3, §4, §5

The target of another assay is T3, p99 AmpC β-lactamase (Enterobacter cloacae, UniProt P05364).
T3 construct: expressed as native untagged proteins; made in house; host or cells: E. coli BL21(DE3)
T3 sequence (P05364 21-381): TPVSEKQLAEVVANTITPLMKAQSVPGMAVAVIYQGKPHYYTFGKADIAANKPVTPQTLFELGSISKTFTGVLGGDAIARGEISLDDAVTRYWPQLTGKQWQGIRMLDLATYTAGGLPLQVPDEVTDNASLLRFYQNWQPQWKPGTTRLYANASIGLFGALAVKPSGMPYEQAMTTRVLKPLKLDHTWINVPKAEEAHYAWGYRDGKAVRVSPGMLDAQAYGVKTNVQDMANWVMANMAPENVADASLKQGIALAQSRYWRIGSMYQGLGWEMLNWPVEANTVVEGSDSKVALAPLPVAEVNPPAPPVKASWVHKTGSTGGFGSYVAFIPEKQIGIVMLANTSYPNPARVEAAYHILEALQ
Put plainly: β-lactamase enzyme inhibition assay (nitrocefin substrate), P99 AmpC. Format: biochemical. Conditions: nitrocefin 100 μM, 37° C., PBS pH 7.0; read-out: P99 AmpC IC50. The protocol:
as §3, §4, §5

Another assay addresses T4, KPC-2 β-lactamase (Klebsiella pneumoniae, UniProt Q9F663).
T4 construct: expressed as native untagged proteins; made in house; host or cells: E. coli BL21(DE3)
Put plainly: β-lactamase enzyme inhibition assay (nitrocefin substrate), KPC-2. The assay is classed as biochemical. On the procedure:
as §3, §4, §5

The mark [6] stands for this setting: in presence of Ceftazidime 8 μg/ml (Examples 1-56).
[7] abbreviates: in presence of Piperacillin 16 μg/ml (Examples 57-65).

Where a name gives a salt, the structure may show the parent alone.

The values below come from patent US20100292185A1, “BETA-LACTAMASE INHIBITORS” (priority 2009, published 2010).

One may read the IC50 as the concentration needed to halve the response being measured.

T1 sequence (P0A3M1 22-286): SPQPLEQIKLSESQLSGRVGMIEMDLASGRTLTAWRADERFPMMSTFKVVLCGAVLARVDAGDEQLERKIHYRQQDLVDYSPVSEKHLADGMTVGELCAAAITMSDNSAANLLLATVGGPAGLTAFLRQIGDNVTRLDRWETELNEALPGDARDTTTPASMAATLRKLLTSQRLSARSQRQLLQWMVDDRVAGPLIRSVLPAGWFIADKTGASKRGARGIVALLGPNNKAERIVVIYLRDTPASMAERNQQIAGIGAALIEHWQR
T4 sequence (Q9F663 25-293 limits assumed): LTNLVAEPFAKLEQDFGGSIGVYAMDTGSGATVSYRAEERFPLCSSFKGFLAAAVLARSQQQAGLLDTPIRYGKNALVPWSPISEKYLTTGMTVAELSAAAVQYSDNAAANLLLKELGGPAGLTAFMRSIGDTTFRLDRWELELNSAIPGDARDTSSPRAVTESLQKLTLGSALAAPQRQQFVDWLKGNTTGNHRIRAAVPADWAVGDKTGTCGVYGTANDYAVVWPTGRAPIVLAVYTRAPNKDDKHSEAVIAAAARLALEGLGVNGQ

Regarding `CC(C)(O/N=C(\C(=O)N[C@@H]1C(=O)N2C(C(=O)[O-])=C(C[n+]3ccccc3)CS[C@H]12)c1csc(N)n1)C(=O)O` [Ceftazidime, reference compound], the MIC in assay [1] is 128 µg/mL; in [2] it was over 1020 µg/mL; in [3] it was 128 µg/mL; in assay [4], 32 µg/mL; in [5], 128 µg/mL.
For the compound `Cl.O=C(N[C@@H](Cc1cccc(C(=O)O)c1O)B(O)O)c1ccc(CNCc2cccnc2)cc1` [Example 17, (1R)-[4-(pyridin-3-ylmethylaminomethyl]-benzoylamino-(3-carboxy-2-hydroxy)benzyl-methylboronic acid hydrochloride], the half-inhibitory concentration (IC50) was over 1000 nM at SHV-5 β-lactamase, 5 nM at CTX-M15 β-lactamase, 8 nM at p99 AmpC β-lactamase and 15 nM at KPC-2 β-lactamase.
`Cl.O=C(N[C@@H](Cc1cccc(C(=O)O)c1O)B(O)O)c1ccc(CNCc2cccnc2)cc1` [Example 17]: the “MIC of example compound, E. cloacae P99+” value in assay [1] (setting [6]) amounted to 1 µg/mL. Besides, in assay [2] (setting [6]), the “MIC of example compound, E. coli SHV-5” value was over 8 µg/mL. Besides, the “MIC of example compound, P. aeruginosa VIM-2” value in [3] (in presence of Ceftazidime 16 μg/mL (Examples 1-56)) was over 8 µg/mL. The “MIC of example compound, K. pneumoniae KPC-2” value (“MIC … K. pneumoniae KPC-2” for short) in [4] (setting [6]) was found to be 0.12 µg/mL. The “MIC of example compound, K. pneumoniae CTX-M-15” value (“MIC … K. pneumoniae CTX-M-15” below) in assay [5] (setting [6]) was 2 µg/mL.
As for `N=C(N)NCCC[C@H](NCc1ccc(CC(=O)N[C@@H](Cc2cccc(C(=O)O)c2O)B(O)O)cc1)C(=O)O` [Example 59, (1R)-1-(2-{4-[(1-Carboxy-4-guanidino-butylamino)-methyl]-phenyl}-acetylamino)-1-[(3-carboxy-2-hydroxy)benzyl]-methylboronic acid formate], the “MIC of example compound, E. cloacae P99+” value in assay [1] (setting [7]) is 2 µg/mL. The “MIC of example compound, E. coli SHV-5” value in [2] (setting [7]) was 0.5 µg/mL. In addition, the IC50 on SHV-5 β-lactamase amounted to 2 nM; at p99 AmpC β-lactamase, 6 nM; on KPC-2 β-lactamase it was 15 nM. For the same compound, the “MIC … K. pneumoniae KPC-2” value in [4] (setting [7]) came to 1 µg/mL. The “MIC … K. pneumoniae CTX-M-15” value in assay [5] (setting [7]) is over 16 µg/mL.
Regarding `O=C(Cc1ccc(CNC(CO)C(=O)O)cc1)N[C@@H](Cc1cccc(C(=O)O)c1O)B(O)O` (stereo partly drawn) [Example 60, (1R)-1-(2-{4-[(1-Carboxy-2-hydroxy-ethylamino)-methyl]-phenyl}-acetylamino)-1-[(3-carboxy-2-hydroxy)benzyl]-methylboronic acid formate], the “MIC of example compound, E. cloacae P99+” value in [1] (setting [7]) stood at 2 µg/mL. For the same compound, the “MIC of example compound, E. coli SHV-5” value in assay [2] (setting [7]) was determined as 1 µg/mL. In addition, the values for the half-maximal inhibitory concentration (IC50) against SHV-5 β-lactamase, on p99 AmpC β-lactamase and against KPC-2 β-lactamase were 2 nM, 9 nM and 11 nM, respectively. In addition, the “MIC … K. pneumoniae KPC-2” value in [4] (setting [7]) is 0.5 µg/mL. The “MIC … K. pneumoniae CTX-M-15” value in [5] (setting [7]) was over 16 µg/mL.
Turning to `N=C(N)NCc1ccc(CC(=O)N[C@@H](Cc2cccc(C(=O)O)c2O)B(O)O)cc1` [Example 61, (1R)-1-{2-[4-(1-guanidinomethyl)-phenyl]-acetylamino}-1-[(3-carboxy-2-hydroxy)benzyl]-methylboronic acid formate salt], the “MIC of example compound, E. cloacae P99+” value in assay [1] (setting [7]) was 0.25 µg/mL. The “MIC of example compound, E. coli SHV-5” value in [2] (setting [7]) is 0.25 µg/mL. For the same compound, the IC50 against SHV-5 β-lactamase is 2 nM; on CTX-M15 β-lactamase, 4 nM; at p99 AmpC β-lactamase, 11 nM; on KPC-2 β-lactamase, 14 nM. The “MIC … K. pneumoniae KPC-2” value in assay [4] (setting [7]) was determined as 0.25 µg/mL. In addition, the “MIC … K. pneumoniae CTX-M-15” value in assay [5] (setting [7]) was determined as 16 µg/mL.
In the case of `N=C(N)c1ccc(CC(=O)N[C@@H](Cc2cccc(C(=O)O)c2O)B(O)O)cc1` [Example 62, (1R)-1-{2-[4-(Carbamimidoyl)-phenyl]-acetylamino}-1-[(3-carboxy-2-hydroxy)benzyl]-methylboronic acid formate salt], the “MIC of example compound, E. cloacae P99+” value in assay [1] (setting [7]) came out at 0.125 µg/mL. Besides, the “MIC of example compound, E. coli SHV-5” value in assay [2] (setting [7]) was 0.125 µg/mL. The IC50 against SHV-5 β-lactamase is 2 nM; at p99 AmpC β-lactamase, 3 nM; against KPC-2 β-lactamase, 9 nM. Further, the “MIC … K. pneumoniae KPC-2” value in assay [4] (setting [7]) was found to be 0.125 µg/mL. For the same compound, the “MIC … K. pneumoniae CTX-M-15” value in assay [5] (setting [7]) is over 128 µg/mL.
As to `N=C(N)NCc1cccc(CC(=O)N[C@@H](Cc2cccc(C(=O)O)c2O)B(O)O)c1` [Example 65, (1R)-1-{2-[3-(1-guanidinomethyl)-phenyl]-acetylamino}-1-[(3-carboxy-2-hydroxy)benzyl]-methylboronic acid formate salt], in assay [1] (setting [7]), the “MIC of example compound, E. cloacae P99+” value amounted to 0.25 µg/mL. Further, the “MIC of example compound, E. coli SHV-5” value in assay [2] (setting [7]) came to 0.25 µg/mL. The “MIC … K. pneumoniae KPC-2” value in assay [4] (setting [7]) was 0.5 µg/mL. Besides, the “MIC … K. pneumoniae CTX-M-15” value in assay [5] (setting [7]) was over 16 µg/mL.
With `CCN1CCN(C(=O)N[C@@H](C(=O)N[C@@H]2C(=O)N3[C@@H]2SC(C)(C)[C@@H]3C(=O)O)c2ccccc2)C(=O)C1=O` [Pip, Piperacillin, reference compound], the MIC in assay [1], in [2], in assay [3], in [4] and in [5] was over 128 µg/mL in each case.
